Experimental data from publication PMC10058905, “Bioassay-Guided Alkaloids Isolation from Camellia sinensis and Colchicum luteum: In Silico and In Vitro Evaluations for Protease Inhibition” (Molecules, 2023).

Target: T1, Trypsin from bovine pancreas (Bos taurus, UniProt P00760)
T1 construct: gene PRSS1
T1 sequence (P00760 24-246): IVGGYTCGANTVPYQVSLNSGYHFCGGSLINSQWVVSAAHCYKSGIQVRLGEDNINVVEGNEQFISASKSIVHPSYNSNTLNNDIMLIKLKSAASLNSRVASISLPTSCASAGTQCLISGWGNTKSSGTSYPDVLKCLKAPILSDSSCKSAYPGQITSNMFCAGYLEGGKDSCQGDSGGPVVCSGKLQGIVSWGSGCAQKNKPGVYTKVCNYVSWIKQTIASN
Experiment: spectrophotometric BApNA hydrolysis assay, positive control
Format: biochemical

Question: For `O=S(=O)(F)Cc1ccccc1` [PMSF], which IC50 is on record?
Answer: 110 ± 20 µM
